Measurements published in US10213428B2, “(4-((3R,4R)-3-methoxytetrahydro-pyran-4-ylamino)piperidin-1-yl)(5-methyl-6-(((2R,6S)-6-(p-tolyl)tetrahydro-2H-pyran-2-yl)methylamino)pyrimidin-4-yl)methanone citrate” (Centrexion Therapeutics Corporation, priority 2015, dated 2019).

Legend:
[1] = In vitro plasma protein binding (equilibrium dialysis), mouse; assay type: in vitro ADME; conditions: pH 7.4, dialysis 2 hours at 37° C., read-out: Fraction bound (converted)
Method: (§1) Dianorm Teflon dialysis cells (micro 0.2) are used. Each cell consists of a donor (i.e., buffer chamber) and an acceptor chamber (i.e., plasma chamber), separated by an ultrathin semipermeable membrane with a 5 kDa molecular weight cutoff. Stock solutions for each test compound are prepared in DMSO at 1 mM and diluted to a final concentration of 1.0 μM. Aliquots of 200 μL dialysis buffer (100 mM potassium phosphate, pH 7.4) are dispensed into the buffer chamber. Aliquots of 200 μL test compound dialysis solution are dispensed into the plasma chambers. Incubation is carried out for 2 hours under rotation at 37° C. Then, the dialysate is transferred into reaction tubes. The tubes for the buffer fraction contain 0.2 mL acetonitril/water (80/20 volume/volume). Aliquots of 25 μL of the plasma dialysate are transferred into deep well plates and mixed with 25 μL acetonitril/water (80/20 volume/volume), 25 μL buffer, 25 μL calibration solution and 25 μL Internal Standard solution. Protein precipitation is done by adding 200 μL acetonitrile. Aliquots of 50 μL of the buffer dialysate are transferred into deep well plates and mixed with 25 μL blank plasma, 25 μL Internal Standard solution and 200 μL acetonitril. Percent bound is calculated with the formula: % bound=(plasma concentration−buffer concentration/plasma concentration)×100.

[2] = system: plasma protein; test: as above; assay type: in vitro ADME; conditions: 1.0 μM, dialysis 2 hours at 37° C.
Method: as §1

[3] = In vitro plasma protein binding (equilibrium dialysis), minipig; assay type: in vitro ADME; conditions: pH 7.4, dialysis 2 hours at 37° C., read-out: Fraction bound (converted)
Method: as §1

[4] = system: plasma protein; test: as above; assay type: in vitro ADME; conditions: 1.0 μM, dialysis 2 hours at 37° C.
Method: as §1

[5] = In vitro plasma protein binding (equilibrium dialysis), human; assay type: in vitro ADME; conditions: pH 7.4, dialysis 2 hours at 37° C., read-out: Fraction bound (converted)
Method: as §1

[6] = system: plasma protein; test: as above; assay type: in vitro ADME; conditions: 1.0 μM, dialysis 2 hours at 37° C.
Method: as §1

[7] = In vitro metabolic stability in hepatocyte incubations, dog; assay type: in vitro ADME; conditions: hepatocytes (suspension); Dog; predicted from hepatocyte CL intrinsic, well stirred model; read-out: CL, in vivo
Method: (§2) Metabolic degradation of the test compound is assayed in a hepatocyte suspension. Hepatocytes are incubated in an appropriate buffer system. Following a (typically) 30 min preincubation in an incubator (37° C., 10% CO2) 5 μL of test compound solution (1 μM) are added into 395 μL hepatocyte suspension (cell density in the range 0.25-5 Mio cells/mL, typically 1 Mio cells/mL, final DMSO concentration 0.05%). The cells are incubated for six hours (incubator, orbital shaker) and samples (25 μL) are taken at 0, 0.5, 1, 2, 4 and 6 hours. Samples are transferred into acetonitrile and pelleted by centrifugation (5 min). The supernatant is transferred to a new 96-deepwell plate, evaporated under nitrogen and resuspended. Decline of parent compound is analyzed by HPLC-MS/MS. CLint is calculated as follows CL_INTRINSIC=Dose/AUC=(CO/CD)/(AUD+clast/k)×1000/60. […]

[8] = system: hepatocytes; test: as above; assay type: in vitro ADME; conditions: Dog hepatocytes, 1 μM
Method: as §2

[9] = In vitro metabolic stability in hepatocyte incubations, minipig; assay type: in vitro ADME; conditions: hepatocytes (suspension); Minipig; predicted from hepatocyte CL intrinsic, well stirred model
Method: as §2

[10] = system: hepatocytes; test: as above; assay type: in vitro ADME; conditions: Minipig hepatocytes, 1 μM
Method: as §2

[11] = Intravenous pharmacokinetics in mouse; assay type: in vivo, BALB/c mice; conditions: IV dose 10 μmol/kg, mean values
Source text: (§3) The pharmacokinetics of the test compound following single intravenous (IV) or oral (PO) doses were examined in • female BALB/c mice (average weight: 25 g) • male Wistar(Han) rats (average weight: 260 g) • male and female Göttingen Minipigs (average weight: 24 kg) • male beagle dogs (average weight: 15 kg) All non-rodent species were fasted overnight prior to dosing, while mice and rats had food and water available ad libitum. The p.o. dose of the compound was usually administered as suspension in 0.5% Natrosol or as a 0.5% Natrosol/0.015% Tween 80 suspension. For i.v. dosing purposes, the doses were applied as a solution in 0.9% NaCL, or as a solution containing 9.1% HP-beta Cyclodextrin in water.
(§4) Blood was collected by venous sampling and soaking of the blood in EDTA coated tubes. Samples were collected for up to 48 h after administration of the test compound. Plasma was then separated by centrifugation (5 min by approximately 9000 g at 4° C.). For determination of the test compound, plasma was transferred into PCR plates. All samples were stored at approximately −20° C. until bioanalytics. The test compound concentrations in plasma were determined by HPLC MS/MS. The lower limit of quantification was between 0.5 nmol/L and 1 nmol/L.

[12] = Oral pharmacokinetics in mouse; assay type: in vivo, BALB/c mice; conditions: oral dose 20 μmol/kg
Source text: as §3, §4

[13] = female, BALB/c, plasma, 10 umol/kg
[14] = female, BALB/c, plasma, 20 umol/kg, mean values

## CO[C@H]1COCC[C@H]1NC1CCN(C(=O)c2ncnc(NC[C@H]3CCC[C@@H](c4ccc(C)cc4)O3)c2C)CC1 [compound I, (4-((3R,4R)-3-methoxytetrahydro-pyran-4-ylamino)piperidin-1-yl)(5-methyl-6-(((2R,6S)-6-(p-tolyl)tetrahydro-2H-pyran-2-yl)methylamino)pyrimidin-4-yl)methanone]
[1]
  fraction unbound at 2 h, 1 μM: 0.049
[2]
  Fraction unbound: 4.9%
[3]
  fraction unbound at 2 h, 1 μM: 0.392
[4]
  Fraction unbound: 39.2%
[5]
  fraction unbound at 2 h, 1 μM: 0.153
[6]
  Fraction unbound: 15.3%
[7]
  CLhep predicted at 1 μM: 14 mL/min/kg
[8]
  CL intrinsic, in vitro: 3.15 μL/min/10e6 cells
[9]
  predicted in vivo clearance at 1 μM: 6.8 mL/min/kg
[10]
  CL intrinsic, in vitro: 2.73 μL/min/10e6 cells
[11]
  MRTdisp: 0.623 h
[11]; [13]
  AUC(0-inf): 1.99 µM·h
  clearance: 86 mL/min/kg
[11]; female, BALB/c, plasma, 10 umol/kg, read-out: Vss
  Vd: 3.29 L/kg
[12]; [14]
  AUC(0-inf): 3.16 µM·h
  Cmax: 974 nM
  Tmax: 1 h
[12]; mean values
  MRTtot: 3.99 h
[12]; oral bioavailability
  F: 79%
